Laboratory results from article PMC8508980, “Design, Synthesis and Anticancer Profile of New 4-(1H-benzo[d]imidazol-1-yl)pyrimidin-2-amine-Linked Sulfonamide Derivatives with V600EBRAF Inhibitory Effect” (International Journal of Molecular Sciences, 2021).

Legend:
Test in all cases: NCI 60 cell line screen
Format in all cases: cell-based
SN12C = details: Homo sapiens, Renal Cancer, read-out: Percent growth
Procedure: (§1) Anticancer profiling over a panel of 60 cancer cell lines was carried out at the National Cancer Institute (NCI), Bethesda, Maryland, USA, https://dtp.cancer.gov/discovery_development/nci-60/methodology.htm (Last visit 22 September 2021), using the standard procedure (detailed procedure is located in the Supplementary Information page 50 s).
(§2) NCI standard procedure for 60 cell lines assay
(§3) The human tumor cell lines of the cancer screening panel are grown in RPMI 1640 mediu m containing 5% fetal bovine serum and 2 mM L-glutamine. For a typical screening experiment, cells are inoculated into 96 well microtiter plates in 100 μL at plating densities ranging from 5,000 to 40,000 cells/well depending on the doubling time of individual cell lines. After cell inoculation, the microtiter plates are incubated at 37° C, 5 % CO2, 95 % air and 100 % relative humidity for 24 h prior to addition of experimental drugs.
(§4) After 24 h, two plates of each cell line are fixed in situ with TCA, to represent a measurement of the cell population for each cell line at the time of drug addition (Tz). Experimental drugs are solubilized in dimethyl sulfoxide at 400-fold the desired final maximum test concentration (10 µM) and stored frozen prior to use. At the time of drug addition, an aliquot of frozen concentrate is thawed and diluted to twice the desired final maximum test concentration with co mp lete medium containing 50 μg/ml gentamicin. Additional four, 10-fold or ½ log serial dilutions are made to provide a total of five drug concentrations plus control. Aliquots of 100 μl of these different drug dilutions are added to the appropriate microtiter wells already containing 100 μl of medium, resulting in the required final drug concentrations.
(§5) Following drug addition, the plates are incubated for an additional 48 h at 37°C, 5 % CO2, 95 % air, and 100 % relative humidity. For adherent cells, the assay is terminated by the addition of cold TCA. Cells are fixed in situ by the gentle addition of 50 μl of cold 50 % (w/v) TCA (final concentration, 10 % TCA) and incubated for 60 minutes at 4°C. The supernatant is discarded, and the plates are washed five times with tap water and air dried. Sulforhodamine B (SRB) solution (100 μl) at 0.4 % (w/v) in 1 % acetic acid is added to each well, and plates are incubated for 10 minutes at room temperature. After staining, unbound dye is removed by washing five times with 1 % acetic acid and the plates are air dried. Bound stain is subsequently solubilized with 10 mM trizma base, and the absorbance is read on an automated plate reader at a wavelength of 515 nm. For suspension cells, the methodology is the same except that the assay is terminated by fixing settled cells at the bottom of the wells by g ently adding 50 μl of 80 % TCA (final concentration, 16 % TCA). Using the seven absorbance measurements [time zero, (Tz), control growth, (C), and test growth in the presence of drug at the five concentration levels (Ti)], the percentage growth is calculated at each of the drug concentrations levels. Percentage growth inhibition is calculated as:
(§6) [(Ti-Tz)/(C-Tz)] x 100 for concentrations for which Ti>/=Tz
(§7) [(Ti-Tz)/Tz] x 100 for concentrations for which Ti<Tz.
(§8) Three dose response parameters are calculated for each experimental agent. Growth inhibition of […]
(§9) resulting in a 50% reduction in the net protein increase (as measured by SRB staining) in control cells during the drug incubation. The drug concentration resulting in total growth inhibition […]
(§10) (TGI) is calculated from Ti = Tz.

SK-OV-3 = details: Homo sapiens; SK-OV-3, Ovarian Cancer; read-out: Percent growth
Procedure: as §1, §2, §3, §4, §5, §6, §7, §8, §9, §10

OVCAR-5 = details: Homo sapiens; OVCAR-5, Ovarian Cancer; read-out: Percent growth
Procedure: as §1, §2, §3, §4, §5, §6, §7, §8, §9, §10

SK-MEL-2 = details: Homo sapiens; SK-MEL-2, Melanoma; read-out: Percent growth
Procedure: as §1, §2, §3, §4, §5, §6, §7, §8, §9, §10

SF-268 = details: Homo sapiens; SF-268, CNS-Cancer; read-out: Percent growth
Procedure: as §1, §2, §3, §4, §5, §6, §7, §8, §9, §10

NCI-H322M = details: Homo sapiens, Non-Small Cell Lung Cancer, read-out: Percent growth
Procedure: as §1, §2, §3, §4, §5, §6, §7, §8, §9, §10

CCRF-CEM = details: Homo sapiens, Leukemia, read-out: Percent growth
Procedure: as §1, §2, §3, §4, §5, §6, §7, §8, §9, §10

MDA-MB-231/ATCC = details: Homo sapiens, Breast Cancer, read-out: Percent growth
Procedure: as §1, §2, §3, §4, §5, §6, §7, §8, §9, §10

TK-10 = details: Homo sapiens; TK-10, Renal Cancer; read-out: Percent growth
Procedure: as §1, §2, §3, §4, §5, §6, §7, §8, §9, §10

LOX IMVI = details: Homo sapiens, Melanoma, read-out: Percent growth
Procedure: as §1, §2, §3, §4, §5, §6, §7, §8, §9, §10

MDA-MB-435 = details: Homo sapiens; MDA-MB-435, Melanoma; read-out: Percent growth
Procedure: as §1, §2, §3, §4, §5, §6, §7, §8, §9, §10

OVCAR-8 = details: Homo sapiens; OVCAR-8, Ovarian Cancer; read-out: Percent growth
Procedure: as §1, §2, §3, §4, §5, §6, §7, §8, §9, §10

UACC-62 = details: Homo sapiens; UACC-62, Melanoma; read-out: Percent growth
Procedure: as §1, §2, §3, §4, §5, §6, §7, §8, §9, §10

ACHN = details: Homo sapiens, Renal Cancer, read-out: Percent growth
Procedure: as §1, §2, §3, §4, §5, §6, §7, §8, §9, §10

HOP-62 = details: Homo sapiens; HOP-62, Non-Small Cell Lung Cancer; read-out: Percent growth
Procedure: as §1, §2, §3, §4, §5, §6, §7, §8, §9, §10

MALME-3M = details: Homo sapiens, Melanoma, read-out: Percent growth
Procedure: as §1, §2, §3, §4, §5, §6, §7, §8, §9, §10

IGROV1 = details: Homo sapiens, IGROV-1; IGROV1, Ovarian Cancer; read-out: Percent growth
Procedure: as §1, §2, §3, §4, §5, §6, §7, §8, §9, §10

BT-549 = details: Homo sapiens; BT-549, Breast Cancer; read-out: Percent growth
Procedure: as §1, §2, §3, §4, §5, §6, §7, §8, §9, §10

OVCAR-3 = details: Homo sapiens; OVCAR-3, Ovarian Cancer; read-out: Percent growth
Procedure: as §1, §2, §3, §4, §5, §6, §7, §8, §9, §10

SNB-19 = details: Homo sapiens; SNB-19, CNS-Cancer; read-out: Percent growth
Procedure: as §1, §2, §3, §4, §5, §6, §7, §8, §9, §10

A549/ATCC = details: Homo sapiens, Non-Small Cell Lung Cancer, read-out: Percent growth
Procedure: as §1, §2, §3, §4, §5, §6, §7, §8, §9, §10

HL-60(TB) = details: Homo sapiens, Leukemia, read-out: Percent growth
Procedure: as §1, §2, §3, §4, §5, §6, §7, §8, §9, §10

DU-145 = details: Homo sapiens; DU-145, Prostate Cancer; read-out: Percent growth
Procedure: as §1, §2, §3, §4, §5, §6, §7, §8, §9, §10

SMILES | activity at 10 µM (SN12C) [%] | activity at 10 µM (SK-OV-3) [%] | activity at 10 µM (OVCAR-5) [%] | activity at 10 µM (SK-MEL-2) [%] | activity at 10 µM (SF-268) [%] | activity at 10 µM (NCI-H322M) [%] | activity at 10 µM (CCRF-CEM) [%] | activity at 10 µM (MDA-MB-231/ATCC) [%] | activity at 10 µM (TK-10) [%] | activity at 10 µM (LOX IMVI) [%] | activity at 10 µM (MDA-MB-435) [%] | activity at 10 µM (OVCAR-8) [%] | activity at 10 µM (UACC-62) [%] | activity at 10 µM (ACHN) [%] | activity at 10 µM (HOP-62) [%] | activity at 10 µM (MALME-3M) [%] | activity at 10 µM (IGROV1) [%] | activity at 10 µM (BT-549) [%] | activity at 10 µM (OVCAR-3) [%] | activity at 10 µM (SNB-19) [%] | also measured
COc1ccc(S(=O)(=O)NCCNc2nccc(-n3cnc4ccccc43)n2)cc1 [12f, N-(2-((4-(1H-benzo [d]imidazol-1-yl)pyrimidin-2-yl)amino)ethyl)-4-methoxy benzenesulfonamide] | 88.5 | 97.5 | 93.9 | 106 | 86.7 | 92.6 | 102 | 92.1 | 92.5 | 91.7 | 96.6 | 91.5 | 76.6 | 97.1 | 94.6 | 91.7 | 89 | 97.8 | 103 | 95.3 | activity at 10 µM (A549/ATCC): 94.6%; activity at 10 µM (HL-60(TB)): 106%; activity at 10 µM (DU-145): 99.9%
O=S(=O)(NCCCNc1nccc(-n2cnc3ccccc32)n1)c1ccc(Cl)cc1 [12j, N-(3-((4-(1H-benzo [d]imidazol-1-yl)pyrimidin-2-yl)amino)propyl)-4-chloro benzenesulfonamide] | 91.7 | 117 | 105 | 108 | 98.2 | 104 | 91.7 | 89.4 | 104 | 107 | 95.5 | 90.8 | 81.5 | 94.1 | 101 | 103 | 114 | 90.1 | 107 | 104 | activity at 10 µM (A549/ATCC): 99%; activity at 10 µM (HL-60(TB)): 108%; activity at 10 µM (DU-145): 100%
O=S(=O)(NCCNc1nccc(-n2cnc3ccccc32)n1)c1ccc(F)cc1 [12b, N-(2-((4-(1H-benzo [d]imidazol-1-yl)pyrimidin-2-yl)amino)ethyl)-4-fluorobenzenesulfonamide] | 89.7 | 102 | 86.6 | 101 | 88.2 | 95.6 | 93.5 | 81.8 | 97.8 | 93.2 | 97.7 | 89 | 71.3 | 88.3 | 90.9 | 93.7 | 89.3 | 82.2 | 106 | 93 | activity at 10 µM (A549/ATCC): 91.3%; activity at 10 µM (HL-60(TB)): 106%; activity at 10 µM (DU-145): 91.5%
Cc1ccc(S(=O)(=O)NCCNc2nccc(-n3cnc4ccccc43)n2)cc1 [12g, N-(2-((4-(1H-benzo [d]imidazol-1-yl)pyrimidin-2-yl)amino)ethyl)-4-methyl benzenesulfonamide] | 79 | 79.5 | 87.8 | 87.7 | 68.8 | 94.4 | 69.5 | 62.5 | 83.7 | 75.2 | 84.1 | 79.8 | 53 | 73 | 69.6 | 90.2 | 75.2 | 63.7 | 82 | 86.8 | activity at 10 µM (A549/ATCC): 82.4%; activity at 10 µM (HL-60(TB)): 91.2%; activity at 10 µM (DU-145): 89.3%
O=S(=O)(NCCNc1nccc(-n2cnc3ccccc32)n1)c1ccc(Cl)cc1 [12c, N-(2-((4-(1H-benzo [d]imidazol-1-yl)pyrimidin-2-yl)amino)ethyl)-4-chlorobenzenesulfonamide] | 96.6 | 112 | 91.7 | 109 | 92.3 | 95.3 | 103 | 90.5 | 101 | 93.5 | 100 | 102 | 86.4 | 96.4 | 95.4 | 99.5 | 98.2 | 99.3 | 106 | 97.7 | activity at 10 µM (A549/ATCC): 103%; activity at 10 µM (HL-60(TB)): 113%; activity at 10 µM (DU-145): 104%
O=S(=O)(NCCCNc1nccc(-n2cnc3ccccc32)n1)c1ccc(Br)cc1 [12k, N-(3-((4-(1H-benzo [d]imidazol-1-yl)pyrimidin-2-yl)amino)propyl)-4-bromo benzenesulfonamide] | 89.2 | 109 | 97 | 105 | 91.2 | 103 | 83 | 83.6 | 97.8 | 94.6 | 92.6 | 82.5 | 77.3 | 90.4 | 107 | 104 | 101 | 80.8 | 104 | 98.6 | activity at 10 µM (A549/ATCC): 95%; activity at 10 µM (HL-60(TB)): 99.8%; activity at 10 µM (DU-145): 96.5%
